From patent publication US20140113904A1, “TREATMENT OF CANCER WITH TOR KINASE INHIBITORS” (SIGNAL PHARMACEUTICALS, LLC, priority 2012, published 2014)

Key:
4EBP1 (T46) = assay: p-4E-BP1 (T46) in PC-3 cell lysates, ELISA (Compound 2); assay type: cell-based; settings: Homo sapiens; PC-3, 1 hour; read-out: mTORC1 4EBP1 (T46) IC50
Protocol: The direct substrate for mTORC1 was 4E-BP1([…]) and the indirect downstream substrate was S6RP (S235/[…]). The direct substrate for mTORC2 was AKT (S473) and the indirect downstream substrates measured were GSK3β(S9) and PRAS40 ([…]). Additionally, the phosphorylation status of AKT (T308), a phosphorylation site for PDK1, was monitored. Concentration-response curves were plotted and IC50 values determined. Cells were plated at the required density as described in the previous section detailing the Meso Scale assays. […] After incubation with compound, the culture medium was removed via aspiration. Then the plate was placed on ice and 35 μL of the Invitrogen Cell Extraction Buffer (containing fresh PMSF and protease inhibitor cocktail) were added to each well. The treated cells were allowed to undergo lysis for a total of 30 minutes on ice and then shaken for 2 minutes at 4° C. At this point, the plate could be either frozen at -80° C. for later analysis or analyzed immediately with the Invitrogen 4E-BP1[[…]] assay kit. Standards were prepared according to the supplied protocol and 100 μL of each standard was added to appropriate wells. Samples containing Cell Extraction buffer only or diluent buffers only also were included for background controls. […] Absorbance was measured at 450 nm on the VICTORTM X2 multilabel plate reader (Perkin Elmer).

PC3 tumors = assay: Antitumor activity of Compound 2 in PC3 human prostate cancer xenograft model; assay type: in vivo, SCID mice; settings: for tumor volume reduction vs vehicle: Day 30
DNA-PKcs = assay: Total DNA-PKcs immunohistochemistry in PC3 tumors (Compound 2); assay type: in vivo, SCID mice; settings: 5 mg/kg QD for 6 days, 2 hours after the last dose
PC3 cells = assay: Cell cycle distribution by flow cytometry-based PI staining; design: species or system human
Protocol: PC3 tumor cells were plated at 250,000 cells per well in a 6-well plate and allowed to equilibrate overnight in 5% CO2 at 37° C. For treatment, the media was aspirated to remove dead/floating cells before addition of 3 mL of media with or without compound. […] The cells were then processed for cell cycle analysis. The media was transferred into a 15 mL tube. The cells were trypsinized and transferred to the same tube. The cells were then spun at 12 000 rpm, re-suspended in 500 μL propidium iodide (PI) staining buffer, and incubated at room temperature in the dark for 30 minutes. The sample was then analyzed on a FACSCaliber instrument. The cell cycle experiments were performed on two independent occasions.
The raw data collected from BD FACS Calibur was analyzed by cell cycle software ModFit LT (Verity Software House, Inc). The histogram was generated using the automatic analysis setting. All numbers generated by ModFit LT were transferred to Microsoft Excel and graphed.
PC3 cells display an aneuploid phenotype which is evident in the comparison with HeLa cells.

[1] = 5-day tolerability study of Compound 1 in PC3 tumor-bearing mice (body weight); assay type: in vivo, SCID mice
Protocol: Plasma and tumor samples were collected 24 hours after the last dose in each dose group.
Mice were monitored daily for clinical signs and body weight changes. At the end of the study, mice were euthanized and plasma and tumor samples were collected for PK/PD determination. PD markers, pS6 and pAkt, were measured using MSD technology.
Initial body weights were recorded prior to the initiation of treatment using a digital scale. The percent body weight change during the course of the study was calculated using initial body weight measurements. Body weights of each animal were measured twice a week at the same time that tumor measurements were taken. Body weights were measured more frequently if significant decreases were noted during the course of the study.
In preparation for xenograft studies, a 5-day tolerability study was performed. […] The animals in the 50 mg/kg dose group lost >17% of the starting body weight by Day 5 (24 hours after the 4th dose). The animals in this group were euthanized. By Day 6 (24 hours after the 5th dose), the animals in the 25 mg/kg and 10 mg/kg groups lost 9% and 4%, respectively, of the starting body weight.

Structure (SMILES)	IC50 (4EBP1 (T46))	tumor volume reduction vs vehicle (PC3 tumors; 0.5 mg/kg BID)	tumor volume reduction vs vehicle (PC3 tumors; 1 mg/kg BID)	tumor volume reduction vs vehicle (PC3 tumors; 1 mg/kg QD)	tumor inhibition (PC3 tumors; 1 mg/kg QD, Day 30 (BID/QD study))	tumor volume reduction vs vehicle (PC3 tumors; 2 mg/kg QD)	tumor volume reduction vs vehicle (PC3 tumors; 5 mg/kg QD)	lowest efficacious dose (PC3 tumors; BID, approximately 65% tumor volume inhibition)	positive threshold area stained for DNA-PKcs vs vehicle (DNA-PKcs)	% G1 (PC3 cells; 0.5 μM, 24 hours)	% G1a (PC3 cells; 0.5 μM, 24 hours)	% G1 (PC3 cells; 1 μM, 24 hours)	% G1a (PC3 cells; 1 μM, 24 hours)	% G1 (PC3 cells; 5 μM, 24 hours)	% G1a (PC3 cells; 5 μM, 24 hours)	induction of apoptosis (sub-G1 peak) (PC3 cells; 24 hours)	effect on cell cycle distribution (PC3 cells; concentrations relevant to growth inhibition)	loss of starting body weight ([1]; 10 mg/kg QD oral, Day 6 (24 hours after the 5th dose))	loss of starting body weight ([1]; 25 mg/kg QD oral, Day 6 (24 hours after the 5th dose))	loss of starting body weight ([1]; 50 mg/kg QD oral, Day 5 (24 hours after the 4th dose))
CCN1C(=O)CNc2ncc(-c3ccc(-c4nc[nH]n4)nc3C)nc21 [Compound 2, 1-ethyl-7-(2-methyl-6-(1H-1,2,4-triazol-3-yl)pyridin-3-yl)-3,4-dihydropyrazino[2,3-b]pyrazin-2(1H)-one]	130 nM	57%	66%	55%	the same as 0.5 mg/kg BID	63%	76%	1 mg/kg	no significant difference											
CO[C@H]1CC[C@H](N2C(=O)CNc3ncc(-c4ccc(C(C)(C)O)nc4)nc32)CC1 [Compound 1, 7-(6-(2-hydroxypropan-2-yl)pyridin-3-yl)-1-((1r,4r)-4-methoxycyclohexyl)-3,4-dihydropyrazino-[2,3-b]pyrazin-2(1H)-one]										81.1%	79%	88.6%	84.8%	89.2%	83.9%	did not appear to be induction of apoptosis	capable of inducing a G1 arrest	4%	9%	> 17%
